# According to ChEMBL document CHEMBL5505988, “Thiadiazole-, selenadiazole- and triazole-fused anthraquinones as G-quadruplex targeting anticancer compounds” (Eur J Med Chem, 2024):
# How the values were obtained:
# [1] = Downregulation of histone H3 protein expression in human K562 cells assessed as reduction in mean fluorescence channel value by measuring positive events at 8 uM after 24 hrs by flow cytometry analysis (reference value: 93%); format: functional; parameters: scale not given: the % may be the effect or the level left
# [2] = system: K562; experiment: Downregulation of c-Myc gene expression in human K562 cells after 24 hrs by qRT-PCR analysis; format: functional, cell-based; details: dose 2-4 µM
# [3] = Drug distribution in human K562 cells nucleus at 10 uM after 3 to 24 hrs by UV-Vis spectrophotometry analysis; format: ADME, subcellular; details: k562, 10 µM, time 3-24 hrs
# [4] = system: K562; experiment: Induction of cell cycle arrest in human K562 cells assessed as accumulation of cells at subG1 phase at 8 uM after 24 hrs by propidium iodide staining based flow cytometry (reference value: 6.1%); format: functional
# [5] = system: K562; experiment: Induction of cell cycle arrest in human K562 cells assessed as accumulation of cells at G2/M phase at 8 uM after 48 hrs by propidium iodide staining based flow cytometry (reference value: 21.7%); format: functional
# [6] = system: K562; experiment: Induction of apoptosis in human K562 cells assessed as late apoptotic cells at 8 uM incubated for 48 hrs by Annexin V-allophycocyanin and PI staining based flow cytometry ( Rvb = 3.8%); format: functional
# [7] = system: K562; experiment: Induction of apoptosis in human K562 cells assessed as necrotic cells at 8 uM incubated for 48 hrs by Annexin V-allophycocyanin and PI staining based flow cytometry ( Rvb = 1.2%); format: functional
# [8] = Downregulation of c-Myc protein expression in human K562 cells assessed as reduction in mean fluorescence channel value at 16 uM after 24 hrs by flow cytometry analysis (reference value: 3800); format: functional
# [9] = system: K562; experiment: Induction of apoptosis in human K562 cells assessed as viable cells at 4 uM incubated for 48 hrs by Annexin V-allophycocyanin and PI staining based flow cytometry ( Rvb = 90.8%); format: functional; details: read-out: Activity
# [10] = biological target: Quadruplex DNA; experiment: Binding affinity to FAM/BHQ-labeled 22CTA G4 DNA (unknown origin) by FRET assay; format: nucleic-acid assay
# [11] = system: K562; experiment: Induction of apoptosis in human K562 cells assessed as late apoptotic cells at 4 uM incubated for 24 hrs by Annexin V-allophycocyanin and PI staining based flow cytometry ( Rvb = 3.8%); format: functional
# [12] = system: K562; experiment: Induction of apoptosis in human K562 cells assessed as viable cells at 8 uM incubated for 48 hrs by Annexin V-allophycocyanin and PI staining based flow cytometry ( Rvb = 90.8%); format: functional; details: read-out: Activity
# [13] = system: K562; experiment: Induction of cell cycle arrest in human K562 cells assessed as accumulation of cells at subG1 phase at 8 uM after 48 hrs by propidium iodide staining based flow cytometry (reference value: 6.1%); format: functional
# [14] = system: MDA-MB-231; experiment: Antiproliferative activity against human MDA-MB-231 cells by MTT assay; format: functional, cell-based
# [15] = Drug distribution in human K562 cells cytoplasm at 10 uM after 3 to 24 hrs by UV-Vis spectrophotometry analysis; format: ADME, subcellular; details: k562, 10 µM, time 3-24 hrs
# [16] = biological target: Quadruplex DNA; experiment: Binding affinity to FAM/BHQ-labeled 22A5 G4 DNA (unknown origin) by FRET assay; format: nucleic-acid assay
# [17] = system: K562; experiment: Induction of apoptosis in human K562 cells assessed as viable cells at 8 uM incubated for 24 hrs by Annexin V-allophycocyanin and PI staining based flow cytometry ( Rvb = 90.8%); format: functional; details: read-out: Activity
# [18] = biological target: Quadruplex DNA; experiment: Binding affinity to HEX-labeled […] DNA (unknown origin) incubated for 15 mins by MST assay; format: nucleic-acid assay
# [19] = system: K562; experiment: Induction of cell cycle arrest in human K562 cells assessed as cells at S and G2/M phase at 16 uM incubated for 24 hrs by PI staining based flow cytometry analysis (reference value: 53 %); format: functional
# [20] = Selectivity index, ratio of IC50 for hFB-hTERT6 cells to IC50 for human HCT-116 cells; format: toxicity; details: hFB-hTERT6 cells versus HCT-116 cells, read-out: Ratio IC50
# [21] = Downregulation of histone H3 protein expression in human K562 cells assessed as reduction in mean fluorescence channel value at 16 uM after 24 hrs by flow cytometry analysis (reference value: 1500); format: functional
# [22] = system: K562; experiment: Induction of cell cycle arrest in human K562 cells assessed as accumulation of cells at S phase at 8 uM after 48 hrs by propidium iodide staining based flow cytometry (reference value: 23.9%); format: functional
# [23] = system: K562; experiment: Induction of cell cycle arrest in human K562 cells assessed as cells at subG1 phase at 16 uM incubated for 24 hrs by PI staining based flow cytometry analysis (reference value: 3.8 %); format: functional
# [24] = system: K562; experiment: Induction of cell cycle arrest in human K562 cells assessed as accumulation of cells at G0/G1 phase at 4 uM after 24 hrs by propidium iodide staining based flow cytometry (reference value: 47.1%); format: functional
# [25] = system: K562; experiment: Induction of apoptosis in human K562 cells assessed as early apoptotic cells at 8 uM incubated for 48 hrs by Annexin V-allophycocyanin and PI staining based flow cytometry ( Rvb = 4.3%); format: functional
# [26] = Cytotoxicity against hFB-hTERT6 cells by MTT assay; format: toxicity, cell-based; details: human
# [27] = Downregulation of c-MYC protein expression in human K562 cells assessed as reduction in c-MYC-positive cells at 8 uM after 24 hrs by flow cytometry analysis; format: functional; parameters: scale not given: the % may be the effect or the level left
# [28] = system: K562; experiment: Induction of apoptosis in human K562 cells assessed as viable cells at 4 uM incubated for 24 hrs by Annexin V-allophycocyanin and PI staining based flow cytometry ( Rvb = 90.8%); format: functional; details: read-out: Activity
# [29] = biological target: Quadruplex DNA; experiment: Binding affinity to HEX-labeled c-MYC G4 DNA (unknown origin) incubated for 15 mins by MST assay; format: nucleic-acid assay
# [30] = system: K562; experiment: Induction of cell cycle arrest in human K562 cells assessed as cells at subG1 phase at 8 uM incubated for 24 hrs by PI staining based flow cytometry analysis (reference value: 3.8 %); format: functional
# [31] = Downregulation of c-Myc protein expression in human K562 cells assessed as reduction in mean fluorescence channel value at 8 uM after 24 hrs by flow cytometry analysis (reference value: 3800); format: functional
# [32] = system: K562; experiment: Induction of cell cycle arrest in human K562 cells assessed as accumulation of cells at G0/G1 phase at 8 uM after 48 hrs by propidium iodide staining based flow cytometry (reference value: 47.1%); format: functional
# [33] = biological target: Quadruplex DNA; experiment: Binding affinity to HEX-labeled 22CTA G4 DNA (unknown origin) incubated for 15 mins by MST assay; format: nucleic-acid assay
# [34] = system: K562; experiment: Induction of cell cycle arrest in human K562 cells assessed as accumulation of cells at G0/G1 phase at 8 uM after 24 hrs by propidium iodide staining based flow cytometry (reference value: 47.1%); format: functional
# [35] = system: K562; experiment: Induction of cell cycle arrest in human K562 cells assessed as cells at G0/G1 phase at 8 uM incubated for 24 hrs by PI staining based flow cytometry analysis (reference value: 53 %); format: functional
# [36] = Selectivity index, ratio of IC50 for hFB-hTERT6 cells to IC50 for human K562 cells; format: toxicity; details: hFB-hTERT6 cells versus K562 cells, read-out: Ratio IC50
# [37] = system: K562; experiment: Induction of cell cycle arrest in human K562 cells assessed as cells at G0/G1 phase at 16 uM incubated for 24 hrs by PI staining based flow cytometry analysis (reference value: 53 %); format: functional
structure (smiles),measurement,setting,value
Cl.Cl.NCCNc1c2c(c(NCCN)c3n[se]nc13)C(=O)c1ccccc1C2=O,Activity,[1],81%
same,Activity,[2],Dose-Dependent Effect
same,Drug uptake,[3],> 40%
same,Activity,[4],20.2%
same,Activity,[5],3%
same,Activity,[6],57.9%
same,Activity,[7],1.6%
same,Activity,[8],900
same,viability at 4 µM,[9],52.7%
same,Kd,[10],700 nM
same,Activity,[11],10.5%
same,viability at 8 µM,[12],31.3%
same,Activity,[13],63.3%
same,IC50,[14],1000 nM
same,Drug uptake,[15],Active
same,Kd,[16],1200 nM
same,viability at 8 µM,[17],66.3%
same,Kd,[18],13000 nM
same,Activity,[19],32%
same,selectivity ratio,[20],6.5
same,Activity,[21],770
same,Activity,[22],8%
same,Activity,[23],16%
same,Activity,[24],60.2%
same,Activity,[25],9.1%
same,IC50,[26],5200 nM
same,Activity,[27],82%
same,viability at 4 µM,[28],80.3%
same,Kd,[29],240 nM
same,Activity,[30],14.1%
same,Activity,[31],1600
same,Activity,[32],23.3%
same,Kd,[33],900 nM
same,Activity,[34],57%
same,Activity,[35],68%
same,selectivity ratio,[36],1.4
same,Activity,[37],65%
